Read-outs that look alike come from different tables or passages of the source.
Tests used:
Assay type in all cases: biochemical
[1] = PI 3-Kinase (human) HTRF assay, p110δ/p85α; settings: read-out: PI3K γ IC50
PI3K α = PI3K α (Homo sapiens (Human), UniProt P42336); assay: PI 3-Kinase (human) HTRF assay, p110α/p85α
PI3K γ = PI3K γ (Homo sapiens (Human), UniProt P48736); assay: PI 3-Kinase (human) HTRF assay, p110γ
PI3K β = PI3K β (Homo sapiens (Human), UniProt P42338); assay: PI 3-Kinase (human) HTRF assay, p110β/p85α
Chain of PI3K β (P42338 whole entry): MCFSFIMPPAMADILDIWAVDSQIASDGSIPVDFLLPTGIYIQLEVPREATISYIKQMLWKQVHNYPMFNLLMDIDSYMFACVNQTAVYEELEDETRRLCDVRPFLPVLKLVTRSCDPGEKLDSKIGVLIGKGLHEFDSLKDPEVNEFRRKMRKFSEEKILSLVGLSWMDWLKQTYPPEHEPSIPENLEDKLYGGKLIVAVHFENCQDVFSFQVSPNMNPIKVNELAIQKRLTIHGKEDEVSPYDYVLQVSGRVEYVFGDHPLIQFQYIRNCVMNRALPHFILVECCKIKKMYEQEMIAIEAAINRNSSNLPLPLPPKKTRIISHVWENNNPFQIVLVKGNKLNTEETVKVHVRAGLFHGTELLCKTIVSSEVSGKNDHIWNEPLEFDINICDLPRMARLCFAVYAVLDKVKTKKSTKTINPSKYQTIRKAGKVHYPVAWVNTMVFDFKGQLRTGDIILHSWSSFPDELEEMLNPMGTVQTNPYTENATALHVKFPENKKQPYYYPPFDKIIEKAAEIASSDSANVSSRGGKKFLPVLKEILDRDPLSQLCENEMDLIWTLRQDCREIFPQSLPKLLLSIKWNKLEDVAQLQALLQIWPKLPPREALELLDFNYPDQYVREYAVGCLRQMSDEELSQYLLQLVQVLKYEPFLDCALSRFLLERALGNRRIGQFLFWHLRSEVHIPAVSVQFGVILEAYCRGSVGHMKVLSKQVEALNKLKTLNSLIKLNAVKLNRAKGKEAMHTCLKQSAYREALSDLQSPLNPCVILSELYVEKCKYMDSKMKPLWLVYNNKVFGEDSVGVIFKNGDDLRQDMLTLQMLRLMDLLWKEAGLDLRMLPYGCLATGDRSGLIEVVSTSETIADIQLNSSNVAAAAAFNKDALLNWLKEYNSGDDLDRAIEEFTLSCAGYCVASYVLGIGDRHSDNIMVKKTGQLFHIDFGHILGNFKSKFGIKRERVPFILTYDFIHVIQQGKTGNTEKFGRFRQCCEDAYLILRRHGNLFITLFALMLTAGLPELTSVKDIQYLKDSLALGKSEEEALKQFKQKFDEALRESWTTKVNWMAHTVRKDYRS
Chain of PI3K β (P27986 whole entry partner): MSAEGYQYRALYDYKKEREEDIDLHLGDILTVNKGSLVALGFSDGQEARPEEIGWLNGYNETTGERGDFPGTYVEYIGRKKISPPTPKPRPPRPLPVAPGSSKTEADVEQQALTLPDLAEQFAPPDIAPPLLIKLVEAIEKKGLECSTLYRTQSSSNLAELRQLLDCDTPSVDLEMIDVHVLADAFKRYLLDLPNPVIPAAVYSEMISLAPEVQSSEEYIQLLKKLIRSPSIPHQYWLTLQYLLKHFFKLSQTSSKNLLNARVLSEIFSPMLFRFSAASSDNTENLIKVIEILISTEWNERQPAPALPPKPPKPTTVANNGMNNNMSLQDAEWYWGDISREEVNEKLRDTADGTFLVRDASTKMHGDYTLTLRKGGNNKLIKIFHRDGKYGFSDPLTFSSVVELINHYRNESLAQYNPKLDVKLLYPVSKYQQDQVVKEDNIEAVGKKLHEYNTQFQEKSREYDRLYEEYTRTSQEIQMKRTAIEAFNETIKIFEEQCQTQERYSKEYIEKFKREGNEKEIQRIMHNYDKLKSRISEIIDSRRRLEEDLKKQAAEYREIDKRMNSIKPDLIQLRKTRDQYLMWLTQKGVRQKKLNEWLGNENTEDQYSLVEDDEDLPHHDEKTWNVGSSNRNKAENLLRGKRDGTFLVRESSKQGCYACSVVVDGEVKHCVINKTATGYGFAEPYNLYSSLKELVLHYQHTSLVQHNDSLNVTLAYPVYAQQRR

Chain of PI3K α (P42336 whole entry): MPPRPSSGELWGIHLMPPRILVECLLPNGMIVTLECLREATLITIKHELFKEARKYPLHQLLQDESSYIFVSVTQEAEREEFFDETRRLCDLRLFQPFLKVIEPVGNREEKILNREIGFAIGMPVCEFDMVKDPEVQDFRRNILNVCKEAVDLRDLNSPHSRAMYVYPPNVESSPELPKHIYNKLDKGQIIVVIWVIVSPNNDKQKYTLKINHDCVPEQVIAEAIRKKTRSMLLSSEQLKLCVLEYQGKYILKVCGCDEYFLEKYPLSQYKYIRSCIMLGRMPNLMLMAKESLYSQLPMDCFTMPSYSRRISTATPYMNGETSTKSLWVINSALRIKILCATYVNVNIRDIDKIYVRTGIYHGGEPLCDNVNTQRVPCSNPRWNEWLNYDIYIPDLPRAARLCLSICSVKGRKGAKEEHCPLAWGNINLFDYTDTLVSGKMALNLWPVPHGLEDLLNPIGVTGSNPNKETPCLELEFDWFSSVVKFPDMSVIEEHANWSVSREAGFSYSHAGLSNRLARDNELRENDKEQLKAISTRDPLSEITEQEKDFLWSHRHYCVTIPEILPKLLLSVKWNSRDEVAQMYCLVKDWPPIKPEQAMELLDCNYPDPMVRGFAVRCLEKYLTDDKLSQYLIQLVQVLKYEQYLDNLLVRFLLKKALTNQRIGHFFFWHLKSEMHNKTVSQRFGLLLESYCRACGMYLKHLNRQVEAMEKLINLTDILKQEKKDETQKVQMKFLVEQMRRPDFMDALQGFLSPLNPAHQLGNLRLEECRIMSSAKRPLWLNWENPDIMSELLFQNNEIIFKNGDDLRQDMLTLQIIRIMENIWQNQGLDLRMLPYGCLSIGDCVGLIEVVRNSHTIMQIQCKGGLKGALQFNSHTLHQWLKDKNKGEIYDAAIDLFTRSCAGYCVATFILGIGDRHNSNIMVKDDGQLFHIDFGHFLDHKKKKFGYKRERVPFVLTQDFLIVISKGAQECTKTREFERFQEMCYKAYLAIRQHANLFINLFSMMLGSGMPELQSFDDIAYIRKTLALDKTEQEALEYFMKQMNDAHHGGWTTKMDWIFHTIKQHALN
Chain of PI3K α (P27986 whole entry partner): as the sequence (P27986 whole entry partner) above

Compound | IC50 [1] [µM] | IC50 (PI3K α) [µM] | IC50 (PI3K γ; read-out: PI3K δ IC50) [µM] | IC50 (PI3K β) [µM] | IC50 (PI3K γ; read-out: PI3K γ IC50) [µM]
CN1CCN(CCn2cnc3ccc(-c4ccc5oc(N)nc5c4)cc3c2=O)CC1 | > 10 | < 10 | > 10 | > 10 | 
Nc1nc2cc(-c3ccc4ncc(C(=O)NCCCN5CCCC5)n4c3)ccc2o1 | < 0.1 | < 0.1 | < 1 | < 1 | 
Nc1nc2cc(-c3ccc4[nH]nc(N)c4c3)ccc2o1 | > 10 | > 10 | > 10 | > 10 | 
CC(=O)Nc1nc2cc(-c3ccc4nc(N)oc4c3)ccc2s1 | < 0.1 | < 0.1 | < 0.1 | < 0.1 | 
CNS(=O)(=O)c1cncc(-c2ccc3ncc(C(=O)N4CCOCC4)n3c2)c1 | > 10 | < 10 | > 10 | > 10 | 
CN1CCC(NC(=O)c2cnc3ccc(-c4ccc5oc(N)nc5c4)nn23)CC1 | < 1 | < 0.1 | < 0.1 | < 0.1 | 
Nc1nc2cc(-c3ccc4ncc(N5CC(N6CCOCC6)C5)nc4c3)cc(F)c2o1 | < 10 | < 0.1 | < 1 | < 1 | 
Nc1nc2cc(-c3ccc4nc(N)c(N5CC(N6CCOCC6)C5)nc4c3)ccc2o1 | > 10 | > 10 | > 10 | > 10 | 
Nc1nc2cc(-c3ccc4ncc(N5CC[C@@H](N6CCOCC6)C5)nc4c3)ccc2o1 | < 10 | < 0.1 | < 0.1 | < 10 | 
C[C@H]1CN(c2cnc3ccc(-c4ccc5sc(N)nc5c4)cc3n2)CCN1 | > 10 | < 1 | > 10 | < 1 | 
Nc1nc2ccc(-c3ccc4sc(N)nc4c3)cc2o1 | < 1 | < 0.1 | < 0.1 | < 0.1 | 
Nc1nc2cc(-c3ccc4ncc(C(=O)N5CC5)n4c3)ccc2o1 | > 10 | < 1 | < 1 | > 10 | 
Nc1cc(-c2ccc3ncc(C(=O)N4CCOCC4)n3c2)cnc1Cl | > 10 | < 10 | > 10 | > 10 | 
Nc1nc2cc(-c3ccc4ncc(NCCN5CCCC5)nc4c3)ccc2o1 | < 1 | < 1 | < 1 | < 1 | 
CO[C@H]1CCN(C(=O)c2cnc3ccc(-c4ccc5oc(N)nc5c4)cn23)C1 | < 10 | < 0.1 | < 1 | < 10 | 
Nc1nc2ccc(-c3ccc4nnc(C(=O)N5CCCC5)n4c3)cc2o1 | > 10 | < 10 | > 10 | > 10 | 
COc1ncc(-c2ccc3ncc(C(=O)N4CCOCC4)n3c2)cc1N | > 10 | < 10 | > 10 | > 10 | 
Nc1nc2cc(-c3ccc4ncc(NCCCN5CCOCC5)nc4c3)ccc2o1 | < 0.1 | < 0.1 | < 1 | < 1 | 
Nc1nc2cc(-c3ccc4ncc(N5CC(C(=O)N6CCOCC6)C5)nc4c3)ccc2o1 [drawing 442] | < 10 | > 10 | < 10 | < 10 | 
Nc1nc2cc(-c3ccc4ncc(C(=O)N5CC(F)(F)C5)n4c3)ccc2o1 | > 10 | < 0.1 | < 0.1 | > 10 | 

Compound | IC50 [1] [µM] | IC50 (PI3K α) [µM] | IC50 (PI3K γ; read-out: PI3K δ IC50) [µM] | IC50 (PI3K β) [µM] | IC50 (PI3K γ; read-out: PI3K γ IC50) [µM]
Nc1nc2cc(-c3ccc4ncc(C(=O)N5CC[C@@H](O)C5)n4c3)ccc2o1 | < 10 | < 0.1 | < 0.1 | < 10 | 
C[C@H]1CN(c2cnc3ccc(-c4cccc5c(N)nsc45)cc3n2)CCN1 | > 10 | > 10 | > 10 | > 10 | 
C[C@@H]1CN(C2CN(C(=O)c3cnc4ccc(-c5ccc6oc(N)nc6c5)cn34)C2)CCN1 | < 1 | < 0.1 | < 10 | < 10 | 
CN1CCN(C2CCN(c3cnc4ccc(-c5ccc6oc(N)nc6c5)cc4n3)CC2)CC1 | < 0.1 | < 0.1 | < 10 | < 1 | 
Nc1nc2cc(-c3ccc4ncc(C(=O)N5CCn6cncc6C5)n4c3)ccc2o1 | > 10 | < 0.1 | < 10 | < 1 | 
CC(=O)Nc1n[nH]c2cc(-c3ccc4oc(N)nc4c3)ccc12 | > 10 | < 10 | < 10 | < 10 | 
CC(C)N1CCN(c2cnc3ccc(-c4ccc5oc(N)nc5c4)cc3n2)C(=O)C1 | > 10 | > 10 | > 10 | > 10 | 
CN(C(=O)c1cnc2ccc(-c3ccc4oc(N)nc4c3)cn12)C1CCOCC1 | < 10 | < 0.1 | < 1 | < 10 | 
CCN(CC)CCNc1cnc2ccc(-c3ccc4oc(N)nc4c3)cc2n1 | < 1 | < 1 | < 10 | < 1 | 
Nc1nc2cc(-c3ccc4ncn(C(=O)N5CCOCC5)c4c3)ccc2o1 | > 10 | > 10 | > 10 | > 10 | 
CS(=O)(=O)CCN1CCC(NC(=O)c2cnc3ccc(-c4ccc5oc(N)nc5c4)cn23)CC1 | < 0.1 | < 0.1 | < 0.1 | < 10 | 
Cc1cc(-c2ccc3nc(N)oc3c2)cn2c(C(=O)N3CCOCC3)cnc12 | > 10 | < 1 | < 0.1 | < 1 | 
O=C(c1cnc2ccc(-c3ccc(Cl)c(NS(=O)(=O)c4ccccc4)c3)cn12)N1CCOCC1 | > 10 | < 1 | < 1 | > 10 | 
CC(C)N1CCC(n2cnc3ccc(-c4cncc(NS(=O)(=O)c5ccc(F)cc5F)c4)cc3c2=O)CC1 | < 10 | < 1 | < 1 | < 10 | 
Nc1nsc2cc(-c3ccc4ncc(C(=O)N5CCOCC5)n4c3)ccc12 | > 10 | < 10 | > 10 | > 10 | 
CN1CCC(n2cnc3ccc(-c4cnc(Cl)c(NS(=O)(=O)c5ccccc5)c4)cc3c2=O)CC1 | < 0.1 | < 0.1 | < 1 | < 0.1 | 
CCN1CCN(c2cnc3ccc(-c4ccc5oc(N)nc5c4)cc3n2)C(=O)C1 | > 10 | < 10 | > 10 | > 10 | 
O=C(c1cnc2ccc(-c3ccc4oc(Nc5ccccc5)nc4c3)cn12)N1CCOCC1 | > 10 | > 10 | > 10 | < 10 | 
Nc1nc2cc(-c3ccc4ncc(NCCCN5CCCC5)nc4c3)ccc2o1 | < 0.1 | < 0.1 | < 0.1 | < 1 | 
CCN(CC)CC(=O)N1CCN(c2cnc3ccc(-c4ccc5oc(N)nc5c4)cc3n2)CC1 | < 10 | < 0.1 | < 10 | < 10 | 

Compound | IC50 [1] [µM] | IC50 (PI3K α) [µM] | IC50 (PI3K γ; read-out: PI3K δ IC50) [µM] | IC50 (PI3K β) [µM] | IC50 (PI3K γ; read-out: PI3K γ IC50) [µM]
Nc1nc2ccc(-c3ccc4nc(N)oc4c3)cc2o1 | > 10 | > 10 | > 10 | > 10 | 
CC1CN(C(=O)c2cnc3ccc(-c4ccc5oc(N)nc5c4)cn23)CCO1 (stereo not shown) | > 10 | < 0.1 |  | < 10 | 
Nc1nc2cc(-c3ccc4nc(N)sc4c3)cc(F)c2o1 | < 1 | < 0.1 | < 0.1 | < 0.1 | 
Nc1nc2cc(-c3ccc4ncc(N5CC(N)C5)nc4c3)ccc2o1 | < 10 | < 1 | < 1 | < 1 | 
CC(C)N1CCC(n2cnc3ccc(-c4cnc(Cl)c(NS(C)(=O)=O)c4)cc3c2=O)CC1 | < 0.1 | < 0.1 | < 0.1 | < 1 | 
Nc1nc2ccc(-c3cc(F)c4oc(N)nc4c3)cc2o1 | < 10 | < 1 | < 0.1 | < 1 | 
C[C@@H]1CN(C2CN(c3cnc4ccc(-c5ccc6oc(N)nc6c5)nc4n3)C2)CCN1C |  | < 0.1 |  | > 10 | < 10
Nc1nc2cc(-c3ccn4ncc(-c5ccncc5)c4c3)ccc2o1 | < 0.1 | < 0.1 | < 0.1 | < 0.1 | 
O=C(c1cnc2ccc(-c3cncc(NS(=O)(=O)c4ccc(F)cc4F)c3)cn12)N1CCOCC1 | < 1 | < 0.1 | < 0.1 | > 10 | 
C[C@@H](N)C(=O)N1CCN(c2cnc3ccc(-c4ccc5oc(N)nc5c4)cc3n2)CC1 | < 1 | < 0.1 | < 10 | < 1 | 
COCCN1CCN(c2cnc3ccc(-c4ccc5oc(N)nc5c4)cc3n2)CC1 | > 10 | < 0.1 | < 1 | < 1 | 
NC(=O)[C@H]1CCCN1C(=O)c1cnc2ccc(-c3ccc4oc(N)nc4c3)cn12 | > 10 | < 1 | < 10 | > 10 | 
COc1ccc(CNc2n[nH]c3cc(-c4ccc5oc(N)nc5c4)ccc23)cc1 | > 10 | > 10 | > 10 | > 10 | 
CN1CCN(c2cnc3ccc(-c4ccc5oc(N)nc5c4)cc3n2)C(=O)C1 |  | < 10 | > 10 |  | 
CN(C)CC(=O)N1CCN(c2cnc3ccc(-c4ccc5oc(N)nc5c4)cc3n2)CC1 [drawing 407] | < 1 |  | < 1 |  | 
C[C@@H]1CN(c2cnc3ccc(-c4ccc5oc(N)nc5c4)nc3n2)CCN1 |  | < 0.1 |  | < 0.1 | < 1
Cc1c(-c2ccc3oc(N)nc3c2)ccc2ncc(N3CC(N4CCNCC4)C3)nc12 | > 10 | < 0.1 |  | > 10 | 
COc1ncc(-c2ccc3ncn(C4CCN(C)CC4)c(=O)c3c2)cc1NS(C)(=O)=O |  | < 0.1 | < 10 | < 1 | 
Nc1nc2cc(-c3ccc4ncc(C(=O)N5CCC(O)C5)n4c3)ccc2o1 (stereo not shown) | < 10 | < 0.1 |  | < 10 | 
